In US10407381B2 (THE BOARD OF TRUSTEES OF THE UNIVERSITY OF ILLINOIS, priority 2015, dated 2019):
Where two headings read alike, the source gives them in different places.

What was measured:
5-HT2B = 5-HT2B (Homo sapiens, UniProt P41595); assay: Calcium flux (FLIPR) assay, human 5-HT2B stably expressed in HEK-293 (Flp-In-293) cells; settings: for Emax, % 5-HT 5-HT2B: normalized to 5-HT
human 5-HT2C-INI = target: T1, human 5-HT2C-INI (Homo sapiens, UniProt P28335); assay: Calcium flux (FLIPR) assay, human 5-HT2C-INI stably expressed in HEK-293 (Flp-In-293) cells; settings: human 5-HT2C-INI in HEK-293 cells, FLIPR; for Emax, % 5-HT 5-HT2C: normalized to 5-HT; for EC50: NA = no activity at 10 μM
T1 sequence (P28335 33-458): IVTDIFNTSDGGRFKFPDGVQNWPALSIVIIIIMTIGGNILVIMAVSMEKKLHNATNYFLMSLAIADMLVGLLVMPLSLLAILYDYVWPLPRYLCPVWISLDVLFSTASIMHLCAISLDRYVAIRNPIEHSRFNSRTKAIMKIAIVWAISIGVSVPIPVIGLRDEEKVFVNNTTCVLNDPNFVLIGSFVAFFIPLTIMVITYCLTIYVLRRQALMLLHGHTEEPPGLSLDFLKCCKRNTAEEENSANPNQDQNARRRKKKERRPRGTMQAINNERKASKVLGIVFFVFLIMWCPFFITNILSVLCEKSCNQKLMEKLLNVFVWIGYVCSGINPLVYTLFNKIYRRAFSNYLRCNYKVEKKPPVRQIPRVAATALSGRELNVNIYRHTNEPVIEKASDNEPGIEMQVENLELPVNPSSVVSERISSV

5-HT2A = 5-HT2A (Homo sapiens, UniProt P28223); assay: Calcium flux (FLIPR) assay, human 5-HT2A stably expressed in HEK-293 (Flp-In-293) cells; settings: for Emax, % 5-HT 5-HT2A: normalized to 5-HT
5-HT2A, sequence (P28223 whole entry): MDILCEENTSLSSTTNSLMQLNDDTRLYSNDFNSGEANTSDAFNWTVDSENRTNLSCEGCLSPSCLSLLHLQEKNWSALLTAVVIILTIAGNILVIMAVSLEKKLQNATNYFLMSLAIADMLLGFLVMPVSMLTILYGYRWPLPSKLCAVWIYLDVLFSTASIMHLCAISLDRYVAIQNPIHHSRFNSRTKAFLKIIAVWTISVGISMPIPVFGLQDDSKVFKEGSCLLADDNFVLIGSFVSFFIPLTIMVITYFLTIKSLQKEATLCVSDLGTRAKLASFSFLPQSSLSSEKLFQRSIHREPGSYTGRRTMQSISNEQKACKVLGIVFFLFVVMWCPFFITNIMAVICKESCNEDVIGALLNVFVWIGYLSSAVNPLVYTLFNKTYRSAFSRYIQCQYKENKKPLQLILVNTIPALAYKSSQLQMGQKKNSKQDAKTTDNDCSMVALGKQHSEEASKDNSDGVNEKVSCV

[1] = read-out: EC50, nM 5-HT2B, human 5-HT2B in HEK-293 cells, NA = no activity at 10 μM
[2] = human 5-HT2A in HEK-293 cells, FLIPR
[3] = read-out: EC50, nM 5-HT2A, human 5-HT2A in HEK-293 cells, FLIPR, NA = no activity at 10 μM
[4] = EC50, nM 5-HT2B, human 5-HT2B in HEK-293 cells, NA = no activity at 10 μM
[5] = EC50, nM 5-HT2A, human 5-HT2A in HEK-293 cells, FLIPR, NA = no activity at 10 μM

5-HT2B, sequence (P41595 whole entry): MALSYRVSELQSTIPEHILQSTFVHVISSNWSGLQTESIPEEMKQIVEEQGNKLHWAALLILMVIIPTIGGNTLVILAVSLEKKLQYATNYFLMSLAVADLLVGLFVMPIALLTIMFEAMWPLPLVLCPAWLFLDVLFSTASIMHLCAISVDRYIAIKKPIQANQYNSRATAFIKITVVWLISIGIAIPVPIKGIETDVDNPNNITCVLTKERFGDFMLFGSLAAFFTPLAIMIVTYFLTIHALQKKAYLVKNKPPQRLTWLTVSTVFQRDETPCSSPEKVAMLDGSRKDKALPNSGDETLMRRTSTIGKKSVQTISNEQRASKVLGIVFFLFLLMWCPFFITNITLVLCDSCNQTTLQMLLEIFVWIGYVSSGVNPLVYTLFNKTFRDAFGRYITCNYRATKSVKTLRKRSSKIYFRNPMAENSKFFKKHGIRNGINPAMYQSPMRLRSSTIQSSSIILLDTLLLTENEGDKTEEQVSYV

Structure (SMILES) | Emax, % 5-HT 5-HT2B (5-HT2B; human 5-HT2B in HEK-293 cells) | EC50 (5-HT2B; [1]) | Emax, % 5-HT 5-HT2C (human 5-HT2C-INI) | EC50 (human 5-HT2C-INI; read-out: EC50, nM 5-HT2C) | Emax, % 5-HT 5-HT2A (5-HT2A; [2]) | EC50 (5-HT2A; [3]) | EC50 (5-HT2B; [4]) | EC50 (human 5-HT2C-INI; EC50, nM 5-HT2C) | EC50 (5-HT2A; [5]) | EC50 (5-HT2A)
COc1ccc(Cl)c(Cl)c1C1CC1CN (single isomer, unassigned; (+)) [(+)-Example 36, (+)-(2-(2,3-Dichloro-6-methoxyphenyl)cyclopropyl)methanamine] | (46%) % 5-HT | 534 nM | (98%) % 5-HT | 21 nM | (76%) % 5-HT | 203 nM |  |  |  | 
COc1ccc(F)c(F)c1[C@@H]1C[C@H]1CN (single isomer, unassigned) [(+)-Example 45, (+)-(2-(2,3-Difluoro-6-methoxyphenyl)cyclopropyl)methanamine] | (64%) % 5-HT |  | (108%) % 5-HT |  | (79%) % 5-HT |  | 209 nM | 9.5 nM | 437 nM | 
CCOc1ccc(F)c(F)c1C1CC1CN (single isomer, unassigned; (+)) [(+)-Example 46, (+)-(2-(6-Ethoxy-2,3-difluorophenyl)cyclopropyl)methanamine] | (48%) % 5-HT |  | (107%) % 5-HT |  | (57%) % 5-HT |  | 288 nM | 7.2 nM | 1160 nM | 
CCCOc1ccc(F)c(F)c1C1CC1CN (single isomer, unassigned; (+)) [(+)-Example 48, (+)-(2-(2,3-Difluoro-6-propoxyphenyl)cyclopropyl)methanamine] | (39%) % 5-HT |  | (90%) % 5-HT |  | (18%) % 5-HT |  | 4220 nM | 47 nM | 2070 nM | 
COc1cc(F)c(F)cc1[C@@H]1C[C@H]1CN (single isomer, unassigned) [(−)-Example 40, (−)-(2-(4,5-Difluoro-2-methoxyphenyl)cyclopropyl)methanamine] | (59%) % 5-HT |  | (104%) % 5-HT |  | (76%) % 5-HT |  |  |  | 511 nM | 
CCOc1ccc(Cl)c(Cl)c1C1CC1CN (single isomer, unassigned; (+)) [(+)-Example 37, (+)-(2-(2,3-Dichloro-6-ethoxyphenyl)cyclopropyl)methanamine] | (61%) % 5-HT |  | (101%) % 5-HT |  | (32%) % 5-HT |  | 1310 nM | 91 nM | 976 nM | 
C=CCOc1ccc(Cl)c(Cl)c1C1CC1CN (single isomer, unassigned; (-)) [(−)-Example 39] | (99%) % 5-HT | 3960 nM | (93%) % 5-HT | 108 nM | (32%) % 5-HT | 426 nM |  |  |  | 
C=CCOc1ccc(Cl)c(F)c1C1CC1CN (single isomer, unassigned; (-)) [(−)-Example 32, (−)-(2-(6-(Allyloxy)-3-chloro-2-fluorophenyl)cyclopropyl)methanamine] | (5%) % 5-HT |  | (87%) % 5-HT |  | (16%) % 5-HT |  |  | 165 nM |  | 1080 nM
CCOc1ccc(F)c(F)c1C1CC1CN (single isomer, unassigned; (-)) [(−)-Example 46, (−)-(2-(6-Ethoxy-2,3-difluorophenyl)cyclopropyl)methanamine] | (30%) % 5-HT |  | (99%) % 5-HT |  | (18%) % 5-HT |  | 4270 nM | 83 nM | 2150 nM | 
C#CCOc1cc(F)c(Cl)cc1C1CC1CN (single isomer, unassigned; (+)) [(+)-Example 6, (+)-(2-(5-Chloro-4-fluoro-2-(prop-2-yn-1-yloxy)phenyl)cyclopropyl)methanamine] | (30%) % 5-HT |  | (80%) % 5-HT |  | (22%) % 5-HT |  | 1010 nM | 67 nM | 628 nM | 
CCOc1ccc(Cl)cc1C1CC1CN (single isomer, unassigned; (+)) [(+)-Example 11, (+)-(2-(5-Chloro-2-ethoxyphenyl)cyclopropyl)methanamine] | (45%) % 5-HT |  | (91%) % 5-HT |  | (49%) % 5-HT |  | 86 nM | 13 nM | 1210 nM | 
C=CCOc1ccc(F)cc1C1CC1CN (single isomer, unassigned; (-)) [(−)-Example 8, (−)-(2-(2-(Allyloxy)-5-fluorophenyl)cyclopropyl)methanamine] |  |  | (87%) % 5-HT |  | (56%) % 5-HT |  |  | 157 nM | 697 nM | 
NCC1CC1c1cc(F)ccc1OCCF (single isomer, unassigned; (-)) [(−)-Example 10, (−)-(2-(5-Fluoro-2-(2-fluoroethoxy)phenyl)cyclopropyl)methanamine] |  |  | (77%) % 5-HT |  | (20%) % 5-HT |  |  | 514 nM | 2990 nM | 
C=C(F)COc1ccc(F)cc1C1CC1CN (single isomer, unassigned; (+)) [(+)-Example 9, (+)-(2-(5-Fluoro-2-((2-fluoroallyl)oxy)phenyl)cyclopropyl)methanamine] |  |  | (91%) % 5-HT |  | (17%) % 5-HT |  |  | 22 nM | 1670 nM | 
COc1ccc(F)c(Cl)c1C1CC1CN (single isomer, unassigned; (-)) [(−)-Example 50, (−)-(2-(2-Chloro-3-fluoro-6-methoxyphenyl)cyclopropyl)methanamine] |  |  | (96%) % 5-HT | 3.2 nM | (72%) % 5-HT | 119 nM |  |  |  | 
CCOc1cc(F)c(Cl)cc1C1CC1CN (single isomer, unassigned; (-)) [(−)-Example 2, (−)-(2-(5-Chloro-2-ethoxy-4-fluorophenyl)cyclopropyl)methanamine] |  |  | (92%) % 5-HT |  | (18%) % 5-HT |  |  | 118 nM | 1240 nM | 
NCC1CC1c1cc(Cl)c(F)cc1OCCF (single isomer, unassigned; (+)) [(+)-Example 4, (+)-(2-(5-Chloro-4-fluoro-2-(2-fluoroethoxy)phenyl)cyclopropyl)methanamine] | (39%) % 5-HT |  | (87%) % 5-HT |  |  |  | 506 nM | 24 nM |  | 
C=CCOc1ccc(F)c(Cl)c1C1CC1CN (single isomer, unassigned; (-)) [(−)-Example 53, (−)-(2-(6-(Allyloxy)-2-chloro-3-fluorophenyl)cyclopropyl)methanamine] | (57%) % 5-HT |  | (89%) % 5-HT |  |  |  |  | 101 nM |  | 
CCCOc1ccc(Cl)cc1C1CC1CN (single isomer, unassigned; (+)) [(+)-Example 12, (+)-(2-(5-Chloro-2-propoxyphenyl)cyclopropyl)methanamine] | (25%) % 5-HT |  | (72%) % 5-HT |  |  |  | 3440 nM | 103 nM |  | 
CCCOc1ccc(F)cc1C1CC1CN (single isomer, unassigned; (-)) [(−)-Example 7, (−)-(2-(5-Fluoro-2-propoxyphenyl)cyclopropyl)methanamine] | (11%) % 5-HT |  | (80%) % 5-HT |  |  |  | 735 nM | 296 nM |  | 
NCC1CC1c1c(OCCF)ccc(F)c1F (single isomer, unassigned; (-)) [(−)-Example 47, (−)-(2-(2,3-Difluoro-6-(2-fluoroethoxy)phenyl)cyclopropyl)methanamine] | (29%) % 5-HT |  | (78%) % 5-HT |  |  |  |  | 509 nM |  | 
CCCOc1ccc(Cl)cc1C1CC1CN (single isomer, unassigned; (-)) [(−)-Example 12, (−)-(2-(5-Chloro-2-propoxyphenyl)cyclopropyl)methanamine] | (21%) % 5-HT |  | (31%) % 5-HT |  |  |  | 3000 nM | 1230 nM |  | 
C=CCOc1ccc(Cl)cc1C1CC1CN (single isomer, unassigned; (-)) [(−)-Example 23, (−)-(2-(2-(Allyloxy)-5-chlorophenyl)cyclopropyl)methanamine] | (28%) % 5-HT |  | (42%) % 5-HT |  |  |  | 4300 nM | 737 nM |  | 
